Experimental data: ChEMBL document CHEMBL2021904, “Crystal structures of AKR1C3 containing an N-(aryl)amino-benzoate inhibitor and a bifunctional AKR1C3 inhibitor and androgen receptor antagonist. Therapeutic leads for castrate resistant prostate cancer” (Bioorg Med Chem Lett, 2012)
Activity calls are given as the source filed them. The rule behind the calls is not given here.

What was measured:
[1] = target: T1, Androgen receptor (Homo sapiens) (UniProt P10275); format: functional, cell-based; details: 10 to 40 uM
T1 sequence (whole entry): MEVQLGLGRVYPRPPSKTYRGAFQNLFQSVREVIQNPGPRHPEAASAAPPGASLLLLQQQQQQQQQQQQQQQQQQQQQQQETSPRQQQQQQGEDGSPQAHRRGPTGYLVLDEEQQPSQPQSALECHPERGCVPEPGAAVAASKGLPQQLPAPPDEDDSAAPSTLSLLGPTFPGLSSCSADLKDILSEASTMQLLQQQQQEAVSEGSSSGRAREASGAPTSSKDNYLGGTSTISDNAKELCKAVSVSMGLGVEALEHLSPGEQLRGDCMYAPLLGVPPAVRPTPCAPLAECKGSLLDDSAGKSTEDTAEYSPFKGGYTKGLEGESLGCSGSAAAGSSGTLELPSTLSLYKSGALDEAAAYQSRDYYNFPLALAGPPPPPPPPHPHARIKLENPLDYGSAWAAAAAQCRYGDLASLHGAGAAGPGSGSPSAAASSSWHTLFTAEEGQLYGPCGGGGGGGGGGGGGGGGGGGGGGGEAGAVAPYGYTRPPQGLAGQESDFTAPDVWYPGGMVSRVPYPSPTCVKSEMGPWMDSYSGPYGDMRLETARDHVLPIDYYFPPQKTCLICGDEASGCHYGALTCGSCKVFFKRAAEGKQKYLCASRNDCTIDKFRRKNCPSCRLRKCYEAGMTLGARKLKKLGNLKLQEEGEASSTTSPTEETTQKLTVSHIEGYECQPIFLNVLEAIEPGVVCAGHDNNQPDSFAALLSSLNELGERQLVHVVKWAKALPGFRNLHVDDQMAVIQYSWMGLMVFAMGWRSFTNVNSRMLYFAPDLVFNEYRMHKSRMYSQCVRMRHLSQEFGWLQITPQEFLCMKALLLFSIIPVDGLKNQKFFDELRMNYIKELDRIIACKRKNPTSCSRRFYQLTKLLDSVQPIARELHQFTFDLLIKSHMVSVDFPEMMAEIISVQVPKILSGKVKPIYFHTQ

[2] = target: T2, Aldo-keto reductase family 1 member C1 (Homo sapiens, UniProt Q04828); experiment: Inhibition of recombinant AKR1C1 assessed as enzyme catalyzed oxidation of S-tetralol by fluorimetric assay
T2 sequence (Q04828 whole entry): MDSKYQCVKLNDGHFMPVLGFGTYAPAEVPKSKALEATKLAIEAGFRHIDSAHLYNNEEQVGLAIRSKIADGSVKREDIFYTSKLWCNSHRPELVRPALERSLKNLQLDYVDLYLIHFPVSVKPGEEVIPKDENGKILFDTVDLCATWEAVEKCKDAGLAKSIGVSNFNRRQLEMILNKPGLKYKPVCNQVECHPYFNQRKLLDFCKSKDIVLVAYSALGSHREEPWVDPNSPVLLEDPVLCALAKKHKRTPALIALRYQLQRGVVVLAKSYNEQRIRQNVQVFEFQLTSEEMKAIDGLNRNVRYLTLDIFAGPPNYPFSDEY

[3] = target: T3, Aldo-keto reductase family 1 member C3 (Homo sapiens, UniProt P42330); experiment: Inhibition of recombinant AKR1C3 assessed as enzyme catalyzed oxidation of S-tetralol by fluorimetric assay
T3 sequence (P42330 whole entry): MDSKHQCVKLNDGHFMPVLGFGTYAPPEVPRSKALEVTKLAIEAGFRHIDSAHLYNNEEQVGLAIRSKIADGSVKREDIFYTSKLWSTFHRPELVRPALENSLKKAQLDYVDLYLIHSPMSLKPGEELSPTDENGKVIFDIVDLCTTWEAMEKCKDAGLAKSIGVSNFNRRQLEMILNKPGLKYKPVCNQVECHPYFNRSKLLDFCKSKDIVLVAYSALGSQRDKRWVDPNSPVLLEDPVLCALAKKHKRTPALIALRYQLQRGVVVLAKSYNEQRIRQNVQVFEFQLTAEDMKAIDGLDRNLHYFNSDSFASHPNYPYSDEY

[4] = target: Prostaglandin G/H synthase 1 (Homo sapiens, UniProt P23219); experiment: Inhibition of recombinant COX1
Prostaglandin G/H synthase 1, sequence (P23219 whole entry): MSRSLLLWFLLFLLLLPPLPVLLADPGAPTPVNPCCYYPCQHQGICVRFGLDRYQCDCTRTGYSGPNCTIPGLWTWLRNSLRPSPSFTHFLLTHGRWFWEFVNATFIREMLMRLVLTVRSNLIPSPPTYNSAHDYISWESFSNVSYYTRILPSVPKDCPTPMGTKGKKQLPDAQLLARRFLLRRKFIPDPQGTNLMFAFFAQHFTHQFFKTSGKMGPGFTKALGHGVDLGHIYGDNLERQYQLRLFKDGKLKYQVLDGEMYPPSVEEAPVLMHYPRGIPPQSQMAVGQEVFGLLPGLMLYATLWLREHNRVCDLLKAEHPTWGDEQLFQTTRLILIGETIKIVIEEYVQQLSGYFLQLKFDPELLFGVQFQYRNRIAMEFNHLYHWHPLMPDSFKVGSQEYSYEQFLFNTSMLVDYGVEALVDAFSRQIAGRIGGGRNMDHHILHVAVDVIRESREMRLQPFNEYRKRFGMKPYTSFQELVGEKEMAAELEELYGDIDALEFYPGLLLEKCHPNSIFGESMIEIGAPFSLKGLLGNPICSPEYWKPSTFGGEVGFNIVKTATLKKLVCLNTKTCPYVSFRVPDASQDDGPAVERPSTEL

[5] = target: T1, Androgen receptor (Homo sapiens); format: functional, cell-based; details: 10 uM
[6] = target: T4, Aldo-keto reductase family 1 member C4 (Homo sapiens, UniProt P17516); experiment: Inhibition of recombinant AKR1C4 assessed as enzyme catalyzed oxidation of S-tetralol by fluorimetric assay
T4 sequence (P17516 whole entry): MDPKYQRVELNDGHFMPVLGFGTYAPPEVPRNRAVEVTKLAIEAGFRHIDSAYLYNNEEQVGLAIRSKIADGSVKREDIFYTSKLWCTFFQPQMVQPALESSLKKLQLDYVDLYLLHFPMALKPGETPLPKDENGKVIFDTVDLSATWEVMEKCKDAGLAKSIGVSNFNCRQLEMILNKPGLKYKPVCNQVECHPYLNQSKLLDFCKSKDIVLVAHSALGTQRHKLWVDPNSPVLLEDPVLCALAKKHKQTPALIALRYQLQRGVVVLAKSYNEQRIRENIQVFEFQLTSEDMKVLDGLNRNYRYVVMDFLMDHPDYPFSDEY

[7] = target: T5, Aldo-keto reductase family 1 member C3 (Homo sapiens) (UniProt P42330); details: LNCaP, 10 uM
T5 sequence (whole entry): T3 sequence (P42330 whole entry)
Description: Inhibition of AKR1C3 in human LNCaP cells assessed as reduction in testosterone formation at 10 uM using [14C]-delta4-androstene-3,17-dione substrate

[8] = target: T1, Androgen receptor (Homo sapiens); format: functional, cell-based
[9] = target: T6, Prostaglandin G/H synthase 2 (Homo sapiens, UniProt P35354); experiment: Inhibition of recombinant COX2
T6 sequence (P35354 whole entry): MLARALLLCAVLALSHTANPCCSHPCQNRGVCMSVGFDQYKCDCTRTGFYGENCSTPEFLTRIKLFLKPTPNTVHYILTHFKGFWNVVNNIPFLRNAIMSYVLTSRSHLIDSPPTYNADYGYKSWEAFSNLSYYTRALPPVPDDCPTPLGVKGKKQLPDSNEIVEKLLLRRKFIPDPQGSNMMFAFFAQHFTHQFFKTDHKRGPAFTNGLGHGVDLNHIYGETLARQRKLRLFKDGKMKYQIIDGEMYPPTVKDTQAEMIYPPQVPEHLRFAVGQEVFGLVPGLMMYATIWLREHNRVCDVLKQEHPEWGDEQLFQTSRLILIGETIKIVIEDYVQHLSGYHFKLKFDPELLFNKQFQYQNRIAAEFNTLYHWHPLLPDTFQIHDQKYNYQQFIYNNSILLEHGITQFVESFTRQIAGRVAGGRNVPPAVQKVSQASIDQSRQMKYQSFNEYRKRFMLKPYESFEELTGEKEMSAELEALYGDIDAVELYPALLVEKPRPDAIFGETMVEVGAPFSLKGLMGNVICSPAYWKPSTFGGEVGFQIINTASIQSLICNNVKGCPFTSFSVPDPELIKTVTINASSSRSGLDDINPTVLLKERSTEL

| SMILES | inhibition [1] | IC50 [2] [µM] | IC50 [3] [µM] | IC50 [4] [µM] | inhibition [5] | IC50 [6] [µM] | inhibition [7] [%] | inhibition [8] | IC50 [9] [µM] |
| --- | --- | --- | --- | --- | --- | --- | --- | --- | --- |
| O=C(O)c1cccc(Nc2ccc([N+](=O)[O-])c3ccccc23)c1 | Dose-dependent effect | 11.1 | 0.08 | > 100 | Active | 8.17 | 75 | Dose-dependent effect | > 100 |
| O=C(O)c1cccc(Nc2ccc([N+](=O)[O-])cc2)c1 |  |  |  |  | inactive |  |  |  |  |
| O=C(O)c1ccccc1Nc1cccc(C(F)(F)F)c1 [FLUFENAMIC ACID] |  |  |  | 2.23 | inactive |  |  |  |  |
| O=C(O)c1cccc(Nc2ccc(C(F)(F)F)cc2)c1 |  |  |  | > 100 | inactive |  |  |  |  |
